Literature values, collected in US6187938A, “ω-amino acid derivatives, processes of their preparation and their use” (Bochemie, s.r.o., priority 1997, dated 2001).

Tested on: skin
Conditions: in presence of petrolatum; Stoughton, McClure 1983

CCCCCCCCCCCCN1CCCCCC1=O [laurocapram, 1-dodecylazacycloheptan-2-one]
inhibition of permeation enhancing effect by paraffinic auxiliary substances (e.g., petrolatum): completely inhibit
